According to patent US9856259B2, “Heterocyclic compounds and uses thereof” (Plexxikon Inc., priority 2014, dated 2018):

Legend:
[1] = system: MYC promoter / c-myc transcription in MV-4-11 cells; conditions: literature (Dawson M A et al. 2011); cited from earlier work
[2] = system: cancer cells such leukemia and lymphoma, multiple myeloma cells, NUT midline carcinoma and glioblastoma cells; conditions: literature; cited from earlier work
[3] = target: T1, BRD4-BD12 (Homo sapiens, UniProt O60885); assay: Alphascreen binding assay, BRD4(1 2) H4; conditions: BRD4 dual bromodomains with acetylated Histone 4 peptide, read-out: Biochemical activity (IC50 μM) BRD4(1 2) H4
T1 construct: dual bromodomains (BRD4-BD12 (1-477), BRD4-BD12 (1-472)); six-His tag (N); made in house; host or cells: E. coli BL21-CodonPlus (DE3)
Method in brief: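 N-His-tagged human BRD4 tandem bromodomains (1-477 or 1-472, E. coli-expressed) and biotinylated tetra-acetylated histone H4 1-21 peptide, preincubated 1 h at room temperature with compound in HEPES pH 7.5/NaCl/BSA/Triton/DTT. AlphaScreen nickel-chelate/streptavidin beads added (7.5 μg/mL), read after 30 min. pIC50 from four-parameter fit of control-normalized data.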

[4] = system: MV-4-11; assay: Oncology cell growth assay, MV-4-11 3 d growth; type: cell-based; conditions: Homo sapiens, MV4-11; MV-4-11 cells, 72 hours, CellTiter Glo; read-out: Cell activity (IC50 μM) MV-4-11 3 d-Growtb
Method in brief: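 MV-4-11 AML cells (MLL-AF4) seeded 3000/well, then exposed to 8-point 1:3 compound dilutions up to 10 μM final, 0.2% DMSO, for 72 h. Growth read by CellTiter Glo luminescence, normalised to DMSO controls; pIC50 from four-parameter fit.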

[5] = system: cancer cell lines / MV-4-11 Myc reporter cell line; assay: Bromodomain cell assays of Example 8 (at least one of them); type: cell-based; conditions: Homo sapiens, MV4-11; at least one of the bromodomain cell assays described in Example 8
Method in brief: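 Antiproliferation: 3000 cells/well, 8-point 1:3 titration from 10 µM final, 0.2% DMSO, 72 h, CellTiter Glo luminescence. Myc reporter: MV-4-11 with E-box firefly luciferase, 25,000 cells, same titration, 24 h; One-Glo luminescence with CellTiter-Fluo viability; 10 µM JQ1 as low control. pIC50 from four-parameter fit.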

## COc1cc2c(cc1-c1c(C)noc1C)ncc1[nH]c(=O)n([C@H](C)c3ccccn3)c12 [iBET 151]
[1]
  BRD4 recruitment to the MYC promoter: disrupt
  c-myc transcription: downregulate
[2]
  activity in variety of cancer cells: have shown activity

## Cc1sc2c(c1C)C(c1ccc(Cl)cc1)=N[C@@H](CC(=O)OC(C)(C)C)c1nnc(C)n1-2 [JQ1]
[2]
  activity in variety of cancer cells: have shown activity

## Cc1noc(C)c1-c1cnc2c(-c3cnn(C)c3)nn(CC3CCC(F)(F)CC3)c2c1 [Compound P-2081, 4-[1-[(4,4-difluorocyclohexyl)methyl]-3-(1-methylpyrazol-4-yl)pyrazolo[4,3-b]pyridin-6-yl]-3,5-dimethyl-isoxazole]
[3]
  IC50: ≤ 1 µM
[4]
  IC50: ≤ 1 µM
[5]
  IC50: < 10000 nM

## Cc1noc(C)c1-c1cnc2cnn(CC3CCC(F)(F)CC3)c2c1 [Compound P-2079, 4-[1-[(4,4-difluorocyclohexyl)methyl]pyrazolo[4,3-b]pyridin-6-yl]-3,5-dimethyl-isoxazole]
[3]
  IC50: ≤ 1 µM
[4]
  IC50: ≤ 1 µM
[5]
  IC50: < 10000 nM

## Cc1noc(C)c1-c1cnc2c(-c3ccc(C(=O)O)cc3)cn(C(c3ccccc3)c3ccccn3)c2n1 (stereo not shown) [Compound P-2046, 4-[3-(3,5-dimethylisoxazol-4-yl)-5-[phenyl(2-pyridyl)methyl]pyrrolo[2,3-b]pyrazin-7-yl]benzoic acid]
[3]
  IC50: ≤ 1 µM
[4]
  IC50: ≤ 1 µM
[5]
  IC50: < 10000 nM

## Cc1noc(C)c1-c1cnc2c(I)nn(CC3CCC(F)(F)CC3)c2c1 [Compound P-2080, 4-[1-[(4,4-difluorocyclohexyl)methyl]-3-iodo-pyrazolo[4,3-b]pyridin-6-yl]-3,5-dimethyl-isoxazole]
[3]
  IC50: ≤ 1 µM
[4]
  IC50: ≤ 1 µM
[5]
  IC50: < 10000 nM
